Results on one substance are retold here after patent US20230277554A1, “COMPOSITION CONTAINING NICKEL-SUPEROXIDE DISMUTASE AND THE LIKE USEFUL FOR HAIRCARE” (priority 2020, published 2023).

In the test the test system is Cutibacterium acnes. The test can be described thus: Cutibacterium acnes growth inhibition. The class given is cell-based. The procedure:
Cutibacterium acnes is a troublesome anaerobic pathogen. TUN-828® has the function of forming oxygen internally, so we tried to explore whether such a mechanism can inhibit the growth of Cutibacterium acnes and thereby promote the formation of Staphylococcus epidermidis thus form a micro-ecological environment beneficial to the scalp. […] In 24 hours, TUN-828® can inhibit more than 93% Cutibacterium acnes and more than 99% in 48 hr.

Regarding “Nickel Bis (Hydroxy Diphenyl MethyIPyrrolidino Methy) Pyridinediy1 t-Butylisocyano Perchlorate [TUN-828®]”, the “inhibition of Cutibacterium acnes” value is, setting by setting: (24 hours) “more than 93%”; (48 hr) “more than 99%”.
